Laboratory results reported in patent US8097656B2, “Nitrogenated trans-stilbene analogs, method for the obtention and medical applications thereof” (Dominion Pharmakine S.L, priority 2005, dated 2012).

Assays:
MB16 cells = assay: Hydrogen peroxide production from MB16 cells (DCFH-DA probe); format: cell-based, murine; conditions: 2.5 μM prior to IL-18; for H2O2 production by MB16 cells treated with IL-18: control 16.0 ± 3, IL-18 alone 34 ± 3.0
Protocol: Determination of hydrogen peroxide production from HSE and MB16 cells. Primary cultures of HSE cells were treated with 10 μg/ml of the DCFH-DA fluorescent probe for 30 minutes at 37° C. and were washed to eliminate the excess fluorochromium. Afterward, fresh culture medium was added thereto in the presence or absence of 2.5 μM of the compounds JE1:2, JE2:1 or JE2:2 and the production of H202 over the course of time was determined (see FIG. 5). The hydrogen peroxide produced by the cells oxidizes the probe, converting it into a fluorescent molecule. Thus, the cell fluorescence produced by the accumulation of DCF made it possible to detect the intracellular production of hydrogen peroxide. In each cell well, it was possible to determine the relative fluorescence value (arbitrary units of fluorescence brightness) in relation to the quantity of hydrogen peroxide produced at different incubation times. In the experiments with MB16 cells, once the cells had been marked with the DCFH-DA probe, they were incubated for 300 minutes with 2.5 μM of the azaresveratrol or JE2:2 compounds, 10 ng/ml of IL-18 (FIG. 4) then having been added.

MA375 cells = assay: In vitro proliferation of MA375 cells in response to human HSC soluble factors; format: cell-based; conditions: for Increase in proliferation of A375 cells by MC-CEH (in words): 2.5 μM for 30 minutes before MC-CEH, 48 hours; for Proliferation of MA375 cells in response to human HSC soluble factors (No. cells per well): 2.5 μM, 30 min before HSC-conditioned media, 48 h, control 9000 ± 60, treatment alone 17500 ± 50
Protocol: Culture of B16 (MB16) and A375 (MA375) melanoma cells. The MB 16 (B16F10 subline) murine tumor cells were cultured at 37° C., with 5% CO2 atmosphere in Dulbecco's modified Eagle's medium (DMEM)-HCO3 penicillin (100 U/ml), streptomycin (100 μg/ml), supplemented with 5% fetal bovine serum and adjusted to pH 7.4. The cells were maintained and subcultured according to the method described by Vidal-Vanaclocha et al. (1994) [Vidal-Vanaclocha, F., Amézaga, C., Asumendi, A., Kaplanski, G. & Dinarello, C. A. Interleukin-1 receptor blockade reduces the number and size of murine B16 melanoma hepatic metastases. Cancer Research, 1994, 54, 2667-2672]. The conditioned media were obtained from subconfluyent cultures maintained in absence of FBS for 24 hours.
In vitro Melanoma cell proliferation test. The MB16 or MA375 cells are seeded (2500 cells/well/200 μl) in DMEM medium (Dulbecco's modified Eagle's medium) with 10% fetal bovine serum (FBS). Once adhered, they were washed to remove the FBS and fresh medium was added in the presence or absence of 2.5 μM of the compounds to be tested. In the experiments with MA375, the compound azaresveratrol (see Table 4) was used, and in the experiments with MB16 cells, the compounds azaresveratrol, JE1:2, JE2:1 or JE2:2 (see FIG. 3) were used. Thirty (30) minutes later, 10 ng/ml of IL-18 or HSC-conditioned media (murines in the case of B16 and human ones in the case of A375) were added to some wells, and the plates were incubated for 48 hours at 37° C. with 5% CO2 Upon completion of the incubation period, the cells were fixed with […] for 1 hours, were washed and were allowed to dry in the incubator at 50° C. for 30 minutes. In following, 100 μl/well of sulforhodamine 101 (0.4% p/v) was added and they were incubated at room temperature in the dark for 30 minutes. After washing, 200 μl/well of Tris base 10 mM pH 10.5 was added and the fluorescence was measured by means of a 530 nm, 620 nm emission excitation filter plate fluorescence reader. The number of cells was calculated by extrapolating said fluorescence data on a standard straight line previously obtained based on the fluorescence emitted in an increasing number of cells.

Row | Structure (SMILES) | Increase of H2O2 production of MB16 cells in response to IL-18 (in words) (MB16 cells) | H2O2 production by MB16 cells treated with IL-18 (MB16 cells) | Increase in proliferation of A375 cells by MC-CEH (in words) (MA375 cells) | Proliferation of MA375 cells in response to human HSC soluble factors (No. cells per well) (MA375 cells)
1 | Oc1ccc(/N=C/c2cc(O)cc(O)c2)cc1 [azaresveratrol, 5-((E)-(4-Hydroxyphenylimino)methyl)benzene-1,3-diol] | significantly (P<0.01) inhibited | 10 ± 2.0 | prevented | 9250 ± 65
2 | Oc1ccc(C=Cc2cc(O)cc(O)c2)cc1 [resveratrol, reference compound] | significantly (P<0.01) inhibited | 12 ± 1.0 | prevented | 9050 ± 100
